For assay [1], the target named is T1, EGFR (Homo sapiens, UniProt P00533, L858R/T790M).
T1 construct: endogenous in cells; host or cells: H1975
The experiment in a line: Cell Degradation 1: EGFR degradation in H1975 cells, HTRF assay. The assay is classed as cell-based. The conditions noted are these: 16 h treatment, EGFR degradation by HTRF. The procedure: After 16 h treatment, add 100 μl 1×lysis buffer to each well; seal the plate and incubate 1 hour at room temperature on a plate shaker; Once the cells are lysed, 16 μL of cell lysate are transferred to a PE 384-well HTRF detection plate; 4 μL of pre-mixed HTRF antibodies are added to each well; Cover the plate with a plate sealer, spin 1000 rpm for 1 min, Incubate overnight at room temperature; Read on BMG PheraStar with HTRF protocol (337 nm-665 nm-620 nm).
(§1) The IC50 (DC50) value of a compound can be obtained by fitting the following equation Y=Bottom+(TOP−Bottom)/(1+((IC50/X)^hillslope))
(§2) Wherein, X and Y are known values, and IC50, Hillslope, Top and Bottom are the parameters obtained by fitting with software. Y is the inhibition percentage (calculated from the equation), X is the concentration of the compound; IC50 is the concentration of the compound when the 50% inhibition is reached. The smaller the IC50 value is, the stronger the inhibitory ability of the compound is. Vice versa, the higher the IC50 value is, the weaker the ability the inhibitory ability of the compound is; Hillslope represents the slope of the fitted curve, generally around 1*; Bottom represents the minimum value of the curve obtained by data fitting, which is generally 0%±20%; Top represents the maximum value of the curve obtained by data fitting, which is generally 100%±20%. The experimental data were fitted by calculating and analyzing with Dotmatics data analysis software.

Assay [2] deals with T2, EGFR (Homo sapiens, UniProt P00533, DEL746-750).
T2 construct: endogenous in cells; host or cells: HCC827
T2 sequence (P00533 with tags, fused parts or gaps DEL746-750): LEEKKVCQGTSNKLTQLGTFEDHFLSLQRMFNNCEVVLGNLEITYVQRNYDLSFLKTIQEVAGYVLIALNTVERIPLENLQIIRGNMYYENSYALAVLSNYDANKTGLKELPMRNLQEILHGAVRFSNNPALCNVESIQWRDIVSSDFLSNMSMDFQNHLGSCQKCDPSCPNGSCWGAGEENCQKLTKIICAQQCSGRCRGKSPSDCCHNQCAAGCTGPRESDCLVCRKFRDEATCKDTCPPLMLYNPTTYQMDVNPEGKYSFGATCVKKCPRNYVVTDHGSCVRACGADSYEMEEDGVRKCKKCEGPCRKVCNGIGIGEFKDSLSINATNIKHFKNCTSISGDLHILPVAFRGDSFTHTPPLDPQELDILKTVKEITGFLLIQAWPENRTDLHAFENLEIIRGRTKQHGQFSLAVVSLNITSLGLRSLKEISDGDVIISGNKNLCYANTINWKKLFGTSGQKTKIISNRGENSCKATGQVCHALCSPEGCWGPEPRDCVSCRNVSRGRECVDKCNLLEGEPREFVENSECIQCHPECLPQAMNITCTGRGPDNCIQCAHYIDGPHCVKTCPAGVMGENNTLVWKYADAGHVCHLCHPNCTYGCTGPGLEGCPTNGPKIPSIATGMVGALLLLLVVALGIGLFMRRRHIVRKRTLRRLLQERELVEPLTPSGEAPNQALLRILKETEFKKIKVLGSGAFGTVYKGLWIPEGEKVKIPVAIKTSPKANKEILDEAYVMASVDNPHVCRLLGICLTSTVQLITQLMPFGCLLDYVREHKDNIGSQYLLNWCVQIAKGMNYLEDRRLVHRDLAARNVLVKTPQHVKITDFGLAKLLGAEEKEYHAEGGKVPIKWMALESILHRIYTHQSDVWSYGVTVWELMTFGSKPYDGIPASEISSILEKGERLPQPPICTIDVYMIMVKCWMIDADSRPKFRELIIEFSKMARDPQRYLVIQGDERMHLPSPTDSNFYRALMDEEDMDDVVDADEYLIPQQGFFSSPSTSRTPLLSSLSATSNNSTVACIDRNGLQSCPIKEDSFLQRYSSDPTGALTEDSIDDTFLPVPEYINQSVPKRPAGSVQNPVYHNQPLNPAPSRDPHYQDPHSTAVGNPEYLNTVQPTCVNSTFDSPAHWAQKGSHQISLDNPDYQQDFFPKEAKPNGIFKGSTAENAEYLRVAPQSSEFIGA
T2 sequence (Q96SW2 whole entry partner): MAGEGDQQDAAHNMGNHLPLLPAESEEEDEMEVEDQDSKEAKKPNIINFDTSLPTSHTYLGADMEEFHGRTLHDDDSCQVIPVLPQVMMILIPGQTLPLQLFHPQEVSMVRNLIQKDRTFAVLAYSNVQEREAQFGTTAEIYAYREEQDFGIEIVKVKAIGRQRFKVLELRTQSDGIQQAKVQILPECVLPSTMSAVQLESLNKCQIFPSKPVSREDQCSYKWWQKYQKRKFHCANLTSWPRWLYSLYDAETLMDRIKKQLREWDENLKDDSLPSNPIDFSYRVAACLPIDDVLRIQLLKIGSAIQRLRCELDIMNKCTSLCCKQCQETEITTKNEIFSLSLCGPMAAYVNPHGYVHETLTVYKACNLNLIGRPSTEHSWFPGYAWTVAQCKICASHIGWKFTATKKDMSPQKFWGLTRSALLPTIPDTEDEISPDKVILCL
Description: Cell Degradation 2: EGFR degradation in HCC827 cells, HTRF assay. The assay is classed as cell-based. As to conditions: 16 h treatment, EGFR degradation by HTRF. Here is the method: After 16 h treatment, add 100 μl 1×lysis buffer to each well; seal the plate and incubate 1 hour at room temperature on a plate shaker; Once the cells are lysed, 16 μl diluted (2 μL to 14 μl 1× lysisi buffer) cell lysate are transferred to a PE 384-well HTRF detection plate; 4 μL of pre-mixed HTRF antibodies are added to each well; Cover the plate with a plate sealer, spin 1000 rpm for 1 min, Incubate overnight at room temperature; Read on BMG PheraStar with HTRF protocol (337 nm-665 nm-620 nm).
as §1, §2
(Time-resolved FRET reads energy transfer from a long-lived donor to a nearby acceptor.)

Broadly, the DC50 is the concentration at which degradation of the target reaches its halfway point. A high value points to a less potent degrader.

T1 sequence (P00533 25-1210 T790M/L858R): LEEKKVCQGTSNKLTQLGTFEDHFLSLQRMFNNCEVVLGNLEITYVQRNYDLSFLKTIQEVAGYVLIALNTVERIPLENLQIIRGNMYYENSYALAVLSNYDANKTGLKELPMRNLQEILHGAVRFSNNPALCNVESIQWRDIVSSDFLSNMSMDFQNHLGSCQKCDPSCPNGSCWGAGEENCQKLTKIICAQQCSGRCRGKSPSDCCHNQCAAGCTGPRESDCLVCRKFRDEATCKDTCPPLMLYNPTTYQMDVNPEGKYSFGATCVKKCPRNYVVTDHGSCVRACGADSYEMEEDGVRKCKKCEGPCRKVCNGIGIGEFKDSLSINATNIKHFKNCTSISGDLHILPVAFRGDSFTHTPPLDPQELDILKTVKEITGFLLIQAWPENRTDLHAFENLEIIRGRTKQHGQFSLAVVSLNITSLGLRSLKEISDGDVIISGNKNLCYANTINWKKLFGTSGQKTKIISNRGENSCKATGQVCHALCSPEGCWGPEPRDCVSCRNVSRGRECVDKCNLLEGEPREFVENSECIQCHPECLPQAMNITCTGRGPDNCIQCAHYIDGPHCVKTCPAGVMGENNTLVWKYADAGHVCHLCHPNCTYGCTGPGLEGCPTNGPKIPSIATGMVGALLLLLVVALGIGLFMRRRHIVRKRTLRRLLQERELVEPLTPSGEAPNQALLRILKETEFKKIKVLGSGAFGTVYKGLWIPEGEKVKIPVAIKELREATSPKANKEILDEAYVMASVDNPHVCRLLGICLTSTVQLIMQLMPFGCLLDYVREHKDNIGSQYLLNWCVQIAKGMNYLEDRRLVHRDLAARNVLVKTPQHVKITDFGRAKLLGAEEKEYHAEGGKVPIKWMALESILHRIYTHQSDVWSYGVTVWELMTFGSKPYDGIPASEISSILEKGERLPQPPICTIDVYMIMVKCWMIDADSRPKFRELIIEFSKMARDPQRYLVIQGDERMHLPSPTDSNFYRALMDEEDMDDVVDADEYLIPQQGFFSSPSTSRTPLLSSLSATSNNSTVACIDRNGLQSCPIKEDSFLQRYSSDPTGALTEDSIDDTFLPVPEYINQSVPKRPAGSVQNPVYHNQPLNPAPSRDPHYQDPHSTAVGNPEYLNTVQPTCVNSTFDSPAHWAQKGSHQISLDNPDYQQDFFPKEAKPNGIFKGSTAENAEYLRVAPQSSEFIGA

Turning to `CS(=O)(=O)N1CCc2cccc(Nc3nc(Nc4ccc(N5CCC(N6CCN(CCC7CCN(c8ccc(C9CCC(=O)NC9=O)c(C#N)c8)CC7)CC6)CC5)c(F)c4)nc4[nH]ccc34)c21` (stereo not shown) [Example 10, 2-(2,6-dioxopiperidin-3-yl)-5-(4-(2-(4-(1-(2-fluoro-4-((4-((1-(methylsulfonyl)indolin-7-yl)amino)-7H-pyrrolo[2,3-d]pyrimidin-2-yl)amino)phenyl)piperidin-4-yl)piperazin-1-yl)ethyl)piperidin-1-yl)benzonitrile], the DC50 was 9.3 nM in assay [1] and over 10000 nM in assay [2].
The matching figures for `CS(=O)(=O)N1CCc2cccc(Nc3nc(Nc4ccc(N5CCC(N6CCN(CC[C@@H]7CCN(c8ccc(C9CCC(=O)NC9=O)cc8)C7)CC6)CC5)c(F)c4)nc4[nH]ccc34)c21` (stereo partly drawn) [Example 64, 3-(4-((R)-3-(2-(4-(1-(2-fluoro-4-((4-((1-(methylsulfonyl)indolin-7-yl)amino)-7H-pyrrolo[2,3-d]pyrimidin-2-yl)amino)phenyl)piperidin-4-yl)piperazin-1-yl)ethyl)pyrrolidin-1-yl)phenyl)piperidine-2,6-dione]: 6.1 nM and 156 nM.
For `CS(=O)(=O)N1CCc2cccc(Nc3nc(Nc4ccc(N5CCC(N6CCN(CCC7CCN(c8ccc(C9CCC(=O)NC9=O)c(F)c8)CC7)CC6)CC5)c5c4OCC5)ncc3Cl)c21` (stereo not shown) [Example 51, 3-(4-(4-(2-(4-(1-(7-((5-chloro-4-((1-(methylsulfonyl)indolin-7-yl)amino)pyrimidin-2-yl)amino)-2,3-dihydrobenzofuran-4-yl)piperidin-4-yl)piperazin-1-yl)ethyl)piperidin-1-yl)-2-fluorophenyl)piperidine-2,6-dione] the same measures were 19.5 nM and 12.4 nM.
For `COc1cc(Nc2nc(Nc3cccc4c3N(S(C)(=O)=O)CC4)c3cc[nH]c3n2)ccc1N1CCC(N2CCN(C(=O)[C@@H]3CCN(c4ccc5c(c4)C(=O)N(C4CCC(=O)NC4=O)C5=O)C3)CC2)CC1` (stereo partly drawn) [Example 75, 2-(2,6-dioxopiperidin-3-yl)-5-((R)-3-(4-(1-(2-methoxy-4-((4-((1-(methylsulfonyl)indolin-7-yl)amino)-7H-pyrrolo[2,3-d]pyrimidin-2-yl)amino)phenyl)piperidin-4-yl)piperazine-1-carbonyl)pyrrolidin-1-yl)isoindoline-1,3-dione] the same measures were 3.9 nM and over 10000 nM.
As for `COc1cc(N2CCC(N3CCN(C(=O)CCN4CCN(c5ccc6c(c5)C(=O)N(C5CCC(=O)NC5=O)C6=O)CC4)CC3)CC2)c(C)cc1Nc1ncc(Br)c(Nc2cccc3c2N(S(C)(=O)=O)CC3)n1` (stereo not shown) [Example 42, 5-(4-(3-(4-(1-(4-((5-bromo-4-((1-(methylsulfonyl)indolin-7-yl)amino)pyrimidin-2-yl)amino)-5-methoxy-2-methylphenyl)piperidin-4-yl)piperazin-1-yl)-3-oxopropyl)piperazin-1-yl)-2-(2,6-dioxopiperidin-3-yl)isoindoline-1,3-dione], the values for the DC50 in assay [1] and in assay [2] were 13.5 nM and 4.9 nM, respectively.
The matching figures for `CS(=O)(=O)N1CCc2cccc(Nc3nc(Nc4ccc(N5CCC(N6CCN(CC7CN(c8ccc9c(c8)C(=O)N(C8CCC(=O)NC8=O)C9=O)C7)CC6)CC5)c(F)c4)nc4[nH]ccc34)c21` (stereo not shown) [Example 60, 2-(2,6-dioxopiperidin-3-yl)-5-(3-((4-(1-(2-fluoro-4-((4-((1-(methylsulfonyl)indolin-7-yl)amino)-7H-pyrrolo[2,3-d]pyrimidin-2-yl)amino)phenyl)piperidin-4-yl)piperazin-1-yl)methyl)azetidin-1-yl)isoindoline-1,3-dione]: 4.9 nM and 14.6 nM.
The matching figures for `CN(CCN1CCN(C2CCN(c3ccc(Nc4nc(Nc5cccc6c5N(S(C)(=O)=O)CC6)c5cc[nH]c5n4)cc3F)CC2)CC1)c1cccc(C2CCC(=O)NC2=O)c1` (stereo not shown) [Example 6, 3-(3-((2-(4-(1-(2-fluoro-4-((4-((1-(methylsulfonyl)indolin-7-yl)amino)-7H-pyrrolo[2,3-d]pyrimidin-2-yl)amino)phenyl)piperidin-4-yl)piperazin-1-yl)ethyl)(methyl)amino)phenyl)piperidine-2,6-dione]: 7.4 nM and 29.3 nM.
For `COc1cc(N2CCC(N3CCN(C(=O)C4CCN(CC5CCN(c6ccc7c(c6)C(=O)N(C6CCC(=O)NC6=O)C7=O)CC5)CC4)CC3)CC2)c(C)cc1Nc1ncc(Br)c(Nc2cccc3c2N(S(C)(=O)=O)CC3)n1` (stereo not shown) [Example 43, 5-(4-((4-(4-(1-(4-((5-bromo-4-((1-(methylsulfonyl)indolin-7-yl)amino)pyrimidin-2-yl)amino)-5-methoxy-2-methylphenyl)piperidin-4-yl)piperazine-1-carbonyl)piperidin-1-yl)methyl)piperidin-1-yl)-2-(2,6-dioxopiperidin-3-yl)isoindoline-1,3-dione] the same measures were 49.1 nM and 11.1 nM.
For the compound `CS(=O)(=O)N1CCc2cccc(Nc3nc(Nc4ccc(N5CCC(N6CCN(C(=O)[C@H]7CCN(c8ccc9c(c8)C(=O)N(C8CCC(=O)NC8=O)C9=O)C7)CC6)CC5)c(F)c4)nc4[nH]ccc34)c21` (stereo partly drawn) [Example 63, 2-(2,6-dioxopiperidin-3-yl)-5-((S)-3-(4-(1-(2-fluoro-4-((4-((1-(methylsulfonyl)indolin-7-yl)amino)-7H-pyrrolo[2,3-d]pyrimidin-2-yl)amino)phenyl)piperidin-4-yl)piperazine-1-carbonyl)pyrrolidin-1-yl)isoindoline-1,3-dione], the values for the DC50 in assay [1] and in assay [2] were 3.9 nM and over 10000 nM, respectively.
For `COc1cc(Nc2nc(Nc3cccc4c3N(S(C)(=O)=O)CC4)c3cc[nH]c3n2)ccc1N1CCC(N2CCN(C(=O)[C@H]3CCN(c4ccc5c(c4)C(=O)N(C4CCC(=O)NC4=O)C5=O)C3)CC2)CC1` (stereo partly drawn) [Example 74, 2-(2,6-dioxopiperidin-3-yl)-5-((S)-3-(4-(1-(2-methoxy-4-((4-((1-(methylsulfonyl)indolin-7-yl)amino)-7H-pyrrolo[2,3-d]pyrimidin-2-yl)amino)phenyl)piperidin-4-yl)piperazine-1-carbonyl)pyrrolidin-1-yl)isoindoline-1,3-dione] the same measures were 4.7 nM and over 10000 nM.
The matching figures for `COc1cc(N2CCC(N3CCN(CCC4CN(c5ccc(C6CCC(=O)NC6=O)cc5)C4)CC3)CC2)ccc1Nc1ncc(Cl)c(Nc2cccc3c2N(S(C)(=O)=O)CC3)n1` (stereo not shown) [Example 84, 3-(4-(3-(2-(4-(1-(4-((5-chloro-4-((1-(methylsulfonyl)indolin-7-yl)amino)pyrimidin-2-yl)amino)-3-methoxyphenyl)piperidin-4-yl)piperazin-1-yl)ethyl)azetidin-1-yl)phenyl)piperidine-2,6-dione]: over 10000 nM and 1980 nM.
For `CS(=O)(=O)N1CCc2cccc(Nc3nc(Nc4ccc(N5CCC(N6CCN(CCc7ccc(C8CCC(=O)NC8=O)cc7)CC6)CC5)c(F)c4)nc4[nH]ccc34)c21` (stereo not shown) [Example 1, 3-(4-(2-(4-(1-(2-fluoro-4-((4-((1-(methylsulfonyl)indolin-7-yl)amino)-7H-pyrrolo[2,3-d]pyrimidin-2-yl)amino)phenyl)piperidin-4-yl)piperazin-1-yl)ethyl)phenyl)piperidine-2,6-dione] the same measures were 9.9 nM and 24.7 nM.
Regarding `CS(=O)(=O)N1CCc2cccc(Nc3nc(Nc4ccc(N5CCC(N6CCN(CCC7CCN(c8ccc9c(c8)C(=O)N(C8CCC(=O)NC8=O)C9=O)CC7)CC6)CC5)c(F)c4)nc4[nH]ccc34)c21` (stereo not shown) [Example 17, 2-(2,6-dioxopiperidin-3-yl)-5-(4-(2-(4-(1-(2-fluoro-4-((4-((1-(methylsulfonyl)indolin-7-yl)amino)-7H-pyrrolo[2,3-d]pyrimidin-2-yl)amino)phenyl)piperidin-4-yl)piperazin-1-yl)ethyl)piperidin-1-yl)isoindoline-1,3-dione], the figures for the DC50 in assay [1] and in assay [2] were 9.6 nM and 30.8 nM, respectively.
The matching figures for `COc1cc(N2CCC(N3CCN(CCCC4CN(c5ccc6c(c5)C(=O)N(C5CCC(=O)NC5=O)C6=O)C4)CC3)CC2)c(C)cc1Nc1ncc(Br)c(Nc2cccc3c2N(S(C)(=O)=O)CC3)n1` (stereo not shown) [Example 44, 5-(3-(3-(4-(1-(4-((5-bromo-4-((1-(methylsulfonyl)indolin-7-yl)amino)pyrimidin-2-yl)amino)-5-methoxy-2-methylphenyl)piperidin-4-yl)piperazin-1-yl)propyl)azetidin-1-yl)-2-(2,6-dioxopiperidin-3-yl)isoindoline-1,3-done]: 10.9 nM and 4.6 nM.

Source of the values: US12643903B2, “Bifunctional compounds for degradation of EGFR and related methods of use” (BeiGene, Ltd., priority 2020, dated 2026).
